Values quoted from earlier work in patent US5179079A, “Nasal formulation and intranasal administration therewith” (Novo Nordisk A/S, priority 1986, dated 1993).

Conditions: compared with intravenous administration

For CC(=O)[C@H]1CC[C@H]2[C@@H]3CCC4=CC(=O)CC[C@]4(C)[C@H]3CC[C@]12C [progesterone], the “blood levels after absorption from the nasal cavity” value is given as “blood levels almost equal to intraveneous administration”.

In the case of CC(C)NCC(O)COc1cccc2ccccc12 (centres unmarked) [propranolol], the “blood levels after absorption from the nasal cavity” value is listed as “blood levels almost equal to intraveneous administration”.
